Where a name gives a salt, the structure may show the parent alone. Read-outs that look alike come from different tables or passages of the source.
Biological target: T1, tankyrase 1 (Homo sapiens, UniProt O95271)
T1 construct: purchased Trevigen 4700-096-K
T1 sequence (O95271 1-1327): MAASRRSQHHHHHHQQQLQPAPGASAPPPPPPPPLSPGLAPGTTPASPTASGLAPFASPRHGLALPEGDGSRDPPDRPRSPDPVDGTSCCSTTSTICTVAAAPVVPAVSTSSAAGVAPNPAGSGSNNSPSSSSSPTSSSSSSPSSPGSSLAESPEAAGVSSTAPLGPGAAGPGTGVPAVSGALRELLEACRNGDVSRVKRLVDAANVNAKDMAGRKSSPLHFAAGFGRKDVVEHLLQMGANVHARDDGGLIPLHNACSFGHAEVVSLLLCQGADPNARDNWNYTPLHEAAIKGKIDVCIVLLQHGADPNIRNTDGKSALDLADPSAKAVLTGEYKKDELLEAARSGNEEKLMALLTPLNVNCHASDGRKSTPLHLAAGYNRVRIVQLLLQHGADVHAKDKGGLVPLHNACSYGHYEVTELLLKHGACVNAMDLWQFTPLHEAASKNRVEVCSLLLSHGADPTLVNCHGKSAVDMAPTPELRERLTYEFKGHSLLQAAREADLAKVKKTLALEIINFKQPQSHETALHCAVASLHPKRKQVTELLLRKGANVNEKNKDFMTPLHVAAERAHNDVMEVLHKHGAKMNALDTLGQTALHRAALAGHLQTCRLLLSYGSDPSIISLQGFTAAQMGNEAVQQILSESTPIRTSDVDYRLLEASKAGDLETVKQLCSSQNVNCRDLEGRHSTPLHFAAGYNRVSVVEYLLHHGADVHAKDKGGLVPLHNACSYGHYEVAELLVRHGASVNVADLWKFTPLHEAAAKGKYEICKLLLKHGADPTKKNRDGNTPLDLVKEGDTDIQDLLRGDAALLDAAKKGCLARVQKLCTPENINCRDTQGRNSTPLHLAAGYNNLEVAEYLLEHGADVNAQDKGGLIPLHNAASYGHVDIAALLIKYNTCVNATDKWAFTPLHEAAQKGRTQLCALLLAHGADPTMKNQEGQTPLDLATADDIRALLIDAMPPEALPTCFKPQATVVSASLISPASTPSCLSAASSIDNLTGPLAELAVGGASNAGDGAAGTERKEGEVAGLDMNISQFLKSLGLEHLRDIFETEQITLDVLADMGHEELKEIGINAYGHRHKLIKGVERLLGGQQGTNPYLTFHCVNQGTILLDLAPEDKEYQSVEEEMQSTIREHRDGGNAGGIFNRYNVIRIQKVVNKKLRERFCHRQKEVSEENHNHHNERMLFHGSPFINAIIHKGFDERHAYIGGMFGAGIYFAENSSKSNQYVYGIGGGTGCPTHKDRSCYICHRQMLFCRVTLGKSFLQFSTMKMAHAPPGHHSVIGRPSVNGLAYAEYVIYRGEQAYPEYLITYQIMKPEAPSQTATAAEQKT
Assay: Analysis of activity of tankyrase 1 (Trevigen kit, ELISA absorbance at 450 nm)
Type: biochemical
Procedure: Activities of novel compounds synthesized according to Examples 1 to 48 against tankyrase 1 were analyzed using a Trevigen kit (Cat. No. 4700-096-K). Poly PAR histone protein-coated 96-well plate, anti-PAR monoclonal antibody and goat anti-mouse IgG-HRP were used for measurement of absorbance by ELISA method. Specifically, 20× I-PAR assay buffer was diluted to 1× by adding water, and 50 μL of the diluted buffer was added to each well of the 96-well plate followed by reacting at rt for 30 min. Then, the supernatant was completely removed from each well and 10 μL of 1× I-PAR assay buffer and 15 μL of assay substrate were added to each well along with 1 μL of a 50× solution of inhibitors to be tested, which were the compounds obtained in the Examples 1 to 48. 10 m Units/μL of tankyrase 1 enzyme was diluted 50-fold with 1× I-PAR assay buffer and 25 μL of the diluted enzyme was added to each well and reacted while stirring at rt for 30 min. One without any compound of the present invention was used as a positive control and another containing 1× I-PAR assay buffer with the same volume instead of tankyrase 1 enzyme was used as a negative control. Upon completion of the reaction, 200 μL of PBSX, which was prepared by adding 0.1% triton X-100 to PBS, was added and removed and this washing process was repeated twice. Washing was repeated twice more using PBS in the same manner. 5× antibody diluent was diluted with distilled water to 1× concentration, 50 μL of the diluted goat anti-mouse IgG-HRP to 1/2000 was added to each well and reacted while stirring at rt for 30 min. Washes were carried out twice using PBSX and PBS, respectively. After addition of 50 μL of TACS-sapphire to each well of the plate, the plate was blocked from light to react for 10 min to 15 min and the color of the reaction solution turned blue. To stop the reaction, 50 μL of 0.2N HCl was added to turn the solution yellow. Finally, the absorbance of the resulting solution was measured at 450 nm.

[1] = Trevigen kit Cat. No. 4700-096-K, reaction at rt for 30 min, read-out: TNKS1 (IC50)

Cc1ncc2c(=O)[nH]c(N3CCN(c4c(F)cc(OCCN5CCC(N)CC5)cc4F)CC3)nn12 [compound 34, 2-(4-(4-(2-(4-Aminopiperidin-1-yl)ethoxy)-2,6-difluorophenyl)piperazin-1-yl)-7-methylimidazo[1,5-f][1,2,4]triazin-4(3H)-one]
IC50 [1]: 0.0605 µM

Cc1ncc2c(=O)[nH]c(N3CCN(c4c(F)cc(OCCN=[N+]=[N-])cc4F)CC3)nn12 [compound 31, 2-(4-(4-(2-Azidoethoxy)-2,6-difluorophenyl)piperazin-1-yl)-7-methylimidazo[1,5-f][1,2,4]triazin-4(3H)-one]
IC50 [1]: 0.171 µM

COCCN(C)Cc1cc(F)c(N2CCN(c3nn4c(C)ncc4c(=O)[nH]3)CC2)c(F)c1 [compound 19, 2-(4-(2,6-Difluoro-4-(((2-methoxyethyl)(methyl)amino)methyl)phenyl)piperazin-1-yl)-7-methylimidazo[1,5-f][1,2,4]triazin-4(3H)-one]
IC50 [1]: 0.102 µM

Cc1ncc2c(=O)[nH]c(N3CCN(c4c(F)cc(OCCN(C)C)cc4F)CC3)nn12 [compound 6, 2-(4-(4-(2-(Dimethylamino)ethoxy)-2,6-difluorophenyl)piperazin-1-yl)-7-methylimidazo[1,5-f][1,2,4]triazin-4(3H)-one]
IC50 [1]: 0.0196 µM

COC(C)c1cc(F)c(N2CCN(c3nn4c(C)ncc4c(=O)[nH]3)CC2)c(F)c1 (stereo not shown) [compound 14, 2-(4-(2,6-Difluoro-4-(1-methoxyethyl)phenyl)piperazin-1-yl)-7-methylimidazo[1,5-f][1,2,4]triazin-4(3H)-one]
IC50 [1]: 0.0692 µM

Cc1ncc2c(=O)[nH]c(N3CCN(c4c(F)cc(OCC(=O)N5CCCC5)cc4F)CC3)nn12 [compound 29, 2-(4-(2,6-Difluoro-4-(2-oxo-2-(pyrrolidin-1-yl)ethoxy)phenyl)piperazin-1-yl)-7-methylimidazo[1,5-f][1,2,4]triazin-4(3H)-one]
IC50 [1]: 0.0848 µM

Cc1ncc2c(=O)[nH]c(N3CCN(c4c(F)cc(OCC(O)CO)cc4F)CC3)nn12 (stereo not shown) [compound 9, 2-(4-(4-(2,3-Dihydroxypropoxy)-2,6-difluorophenyl)piperazin-1-yl)-7-methylimidazo[1,5-f][1,2,4]triazin-4(3H)-one]
IC50 [1]: 0.0795 µM

Cc1ncc2c(=O)[nH]c(N3CCN(c4c(F)cc(C(C)O)cc4F)CC3)nn12 (stereo not shown) [compound 13, 2-(4-(2,6-Difluoro-4-(1-hydroxyethyl)phenyl)piperazin-1-yl)-7-methylimidazo[1,5-f][1,2,4]triazin-4(3H)-one]
IC50 [1]: 0.0457 µM

Cc1ncc2c(=O)[nH]c(N3CCN(c4c(F)cc(OCCN5CCCCC5)cc4F)CC3)nn12 [compound 5, 2-(4-(2,6-Difluoro-4-(2-(piperidin-1-yl)ethoxy)phenyl)piperazin-1-yl)-7-methylimidazo[1,5-f][1,2,4]triazin-4(3H)-one]
IC50 [1]: 0.0252 µM

Cc1ncc2c(=O)[nH]c(N3CCN(c4c(F)cccc4F)CC3)nn12 [compound 15, 2-(4-(2,6-Difluorophenyl)piperazin-1-yl)-7-methylimidazo[1,5-f][1,2,4]triazin-4(3H)-one]
IC50: 0.0179 µM

Cc1ncc2c(=O)[nH]c(N3CCN(c4c(F)cc(OCCN5CCC(O)CC5)cc4F)CC3)nn12 [compound 36, 2-(4-(2,6-Difluoro-4-(2-(4-hydroxypiperidin-1-yl)ethoxy)phenyl)piperazin-1-yl)-7-methylimidazo[1,5-f][1,2,4]triazin-4(3H)-one]
IC50 [1]: 0.0652 µM

Cc1ncc2c(=O)[nH]c(N3CCN(c4ccccc4F)CC3)nn12 [compound 1, 2-(4-(2-Fluorophenyl)piperazin-1-yl)-7-methylimidazo[1,5-f][1,2,4]triazin-4(3H)-one]
IC50: 0.11 µM

Cc1ncc2c(=O)[nH]c(N3CCN(c4c(F)cc(OCCO)cc4F)CC3)nn12 [compound 7, 2-(4-(2,6-Difluoro-4-(2-hydroxyethoxy)phenyl)piperazin-1-yl)-7-methylimidazo[1,5-f][1,2,4]triazin-4(3H)-one]
IC50 [1]: 0.0387 µM

Cc1ncc2c(=O)[nH]c(N3CCN(c4c(F)cc(CN5CCOCC5)cc4F)CC3)nn12 [compound 10, 2-(4-(2,6-Difluoro-4-(morpholinomethyl)phenyl)piperazin-1-yl)-7-methylimidazo[1,5-f][1,2,4]triazin-4(3H)-one]
IC50 [1]: 0.0488 µM

Cc1ncc2c(=O)[nH]c(N3CCN(c4c(F)cc(OCCOC(=O)[C@H](C)N)cc4F)CC3)nn12 [compound 8, (S)-2-(3,5-Difluoro-4-(4-(7-methyl-4-oxo-3,4-dihydroimidazo[1,5-f][1,2,4]triazin-2-yl)piperazin-1-yl)phenoxy)ethyl 2-aminopropionate hydrochloride]
IC50 [1]: 0.0436 µM

Cc1ncc2c(=O)[nH]c(N3CCN(c4c(F)cc(OCC(=O)N5CCCCC5)cc4F)CC3)nn12 [compound 28, 2-(4-(2,6-Difluoro-4-(2-oxo-2-(piperidin-1-yl)ethoxy)phenyl)piperazin-1-yl)-7-methylimidazo[1,5-f][1,2,4]triazin-4(3H)-one]
IC50 [1]: 0.0631 µM

Cc1ncc2c(=O)[nH]c(N3CCN(c4c(F)cc(OCCN5CCC(O)C5)cc4F)CC3)nn12 (stereo not shown) [compound 35, 2-(4-(2,6-Difluoro-4-(2-(3-hydroxypyrrolidin-1-yl)ethoxy)phenyl)piperazin-1-yl)-7-methylimidazo[1,5-f][1,2,4]triazin-4(3H)-one]
IC50 [1]: 0.102 µM

Cc1ncc2c(=O)[nH]c(N3CCN(c4c(F)cc(OCCN5CCCC5)cc4F)CC3)nn12 [compound 24, 2-(4-(2,6-Difluoro-4-(2-(pyrrolidin-1-yl)ethoxy)phenyl)piperazin-1-yl)-7-methylimidazo[1,5-f][1,2,4]triazin-4(3H)-one]
IC50 [1]: 0.0934 µM

COCCOc1cc(F)c(N2CCN(c3nn4c(C)ncc4c(=O)[nH]3)CC2)c(F)c1 [compound 2, 2-(4-(2,6-Difluoro-4-(2-methoxyethoxy)phenyl)piperazin-1-yl)-7-methylimidazo[1,5-f][1,2,4]triazin-4(3H)-one]
IC50: 0.0318 µM

Cc1ncc2c(=O)[nH]c(N3CCN(c4c(F)cc(CN5CCN(C)CC5)cc4F)CC3)nn12 [compound 11, 2-(4-(2,6-Difluoro-4-((4-methylpiperazin-1-yl)methyl)phenyl)piperazin-1-yl)-7-methylimidazo[1,5-f][1,2,4]triazin-4(3H)-one]
IC50 [1]: 0.0441 µM

Cc1ncc2c(=O)[nH]c(N3CCN(c4c(F)cc(OCCN5CCN(C)CC5)cc4F)CC3)nn12 [compound 25, 2-(4-(2,6-Difluoro-4-(2-(4-methylpiperazin-1-yl)ethoxy)phenyl)piperazin-1-yl)-7-methylimidazo[1,5-f][1,2,4]triazin-4(3H)-one]
IC50 [1]: 0.0699 µM

Cc1ncc2c(=O)[nH]c(N3CCN(c4c(F)cc(OCCN5CCOCC5)cc4F)CC3)nn12 [compound 4, 2-(4-(2,6-Difluoro-4-(2-morpholinoethoxy)phenyl)piperazin-1-yl)-7-methylimidazo[1,5-f][1,2,4]triazin-4(3H)-one]
IC50 [1]: 0.0323 µM
